We go through 52 compounds from ChEMBL document CHEMBL3880421, “Indazole compounds and pharmaceutical compositions for inhibiting protein kinases, and methods for their use” (2003).

The assay can be described thus: Antiproliferative activity against VEGF-stimulated HUVEC cells assessed as reduction in cell viability at 10 nM preincubated for 1 hr followed by addition of VEGF measured after 72 hrs by MTT assay. The note with it: Homo sapiens. In kind it is functional. For orientation: Tetrazolium dyes change colour on reduction, which living cells bring about.

Broadly, the inhibition is the relative decrease from the control value, in per cent. Take `CCO/C(C)=C/C(=O)Nc1cccc(Nc2ccc3c(/C=C/c4ccccc4)n[nH]c3c2)c1`: the inhibition at 0.01 µM is 85%. The same measure for `O=C(Cc1ccccc1)C(=O)Nc1cccc(Nc2ccc3c(/C=C/c4ccccc4)n[nH]c3c2)c1`: 11%; for `CC(C)CC(O)C(=O)Nc1cccc(Nc2ccc3c(/C=C/c4ccccc4)n[nH]c3c2)c1` (configuration not stated): 25%.

For the compound `CN(C)C(=S)SCC(=O)Nc1cccc(Nc2ccc3c(/C=C/c4ccccc4)n[nH]c3c2)c1`, the inhibition at 0.01 µM turned out to be 32%.

With `CN1CSCCC1C(=O)Nc1cccc(C(=O)c2ccc3c(/C=C/c4ccccc4)n[nH]c3c2)c1` (configuration not stated), the inhibition at 0.01 µM was 8%. For `O=C(c1cccc(NC(=O)C2C[C@H]3C[C@@H]2CCC3O)c1)c1ccc2c(/C=C/c3ccccc3)n[nH]c2c1` (some centres not stated) the value was 27%; for `CC1(C)C(C(=O)Nc2cccc(Nc3ccc4c(/C=C/c5ccccc5)n[nH]c4c3)c2)C1(C)C`, 25%; for `CC1(C)OC(=O)CC1C(=O)Nc1cccc(Oc2ccc3c(/C=C/c4ccccc4)n[nH]c3c2)c1` (configuration not stated), 25%.

For `O=C1NCC(C(=O)Nc2cccc(C(=O)c3ccc4c(/C=C/c5ccccc5)n[nH]c4c3)c2)N1` (configuration not stated), the inhibition at 0.01 µM is 21%.

Take `O=C(Cc1cc(F)ccc1F)Nc1cccc(Nc2ccc3c(/C=C/c4ccccc4)n[nH]c3c2)c1`: the inhibition at 0.01 µM came to 64%.

With `CCO/C(C)=C/C(=O)Nc1cccc(C(=O)c2ccc3c(/C=C/c4ccccc4)n[nH]c3c2)c1`, the inhibition at 0.01 µM worked out at 72%. The same measure for `CN(C)CCCC(=O)Nc1cccc(Nc2ccc3c(/C=C/c4ccccc4)n[nH]c3c2)c1`: 30%; for `CC(C)(C)[C@@H](O)C(=O)Nc1cccc(C(=O)c2ccc3c(/C=C/c4ccccc4)n[nH]c3c2)c1`: 27%. The same measure for `CC(C)CC(O)C(=O)Nc1cccc(C(=O)c2ccc3c(/C=C/c4ccccc4)n[nH]c3c2)c1` (configuration not stated): 47%; for `O=C(Nc1cccc(Nc2ccc3c(/C=C/c4ccccc4)n[nH]c3c2)c1)C1CC2C=CC1CC2` (configuration not stated): 6%; for `O=C1NCC(C(=O)Nc2cccc(Nc3ccc4c(/C=C/c5ccccc5)n[nH]c4c3)c2)N1` (configuration not stated): 7%. The same measure for `CC(=O)N1CCC[C@@H]1C(=O)Nc1cccc(C(=O)c2ccc3c(/C=C/c4ccccc4)n[nH]c3c2)c1`: 37%; for `CC(=O)N1CCC(C(=O)Nc2cccc(Nc3ccc4c(/C=C/c5ccccc5)n[nH]c4c3)c2)CC1`: 13%; for `CC1(C)OC(=O)CC1C(=O)Nc1cccc(C(=O)c2ccc3c(/C=C/c4ccccc4)n[nH]c3c2)c1` (configuration not stated): 5%. Take `Cc1ccc(CCC(=O)Nc2cccc(Oc3ccc4c(/C=C/c5ccccc5)n[nH]c4c3)c2)cc1`: the inhibition at 0.01 µM is 70%. The same measure for `C/C(=C\C(=O)Nc1cccc(Oc2ccc3c(/C=C/c4ccccc4)n[nH]c3c2)c1)c1ccccc1C`: 52%; for `O=C(Cc1c(F)cccc1F)Nc1cccc(C(=O)c2ccc3c(/C=C/c4ccccc4)n[nH]c3c2)c1`: 81%. The same measure for `CC(C)c1ccccc1C(=O)Nc1cccc(Oc2ccc3c(/C=C/c4ccccc4)n[nH]c3c2)c1`: 35%. For the compound `O=C1CCC(C(=O)Nc2cccc(Oc3ccc4c(/C=C/c5ccccc5)n[nH]c4c3)c2)CC1`, the inhibition at 0.01 µM was 59%.

For the compound `C[C@@]12C[C@H]3C[C@H]1C[C@@]3(C(=O)Nc1cccc(Nc3ccc4c(/C=C/c5ccccc5)n[nH]c4c3)c1)C2`, the inhibition at 0.01 µM was 15%. For `Cc1cc(C(=O)Nc2cccc(Oc3ccc4c(/C=C/c5ccccc5)n[nH]c4c3)c2)n[nH]1` the value was 150%; for `O=C(/C=C/C1C[C@H]2C=C[C@H]1C2)Nc1cccc(Nc2ccc3c(/C=C/c4ccccc4)n[nH]c3c2)c1` (some centres not stated), 30%. For `CN(C)CCCC(=O)Nc1cccc(C(=O)c2ccc3c(/C=C/c4ccccc4)n[nH]c3c2)c1` the value was 24%; for `COc1ccccc1/C=C/C(=O)Nc1cccc(Oc2ccc3c(/C=C/c4ccccc4)n[nH]c3c2)c1`, 17%; for `O=C1CCC(C(=O)Nc2cccc(C(=O)c3ccc4c(/C=C/c5ccccc5)n[nH]c4c3)c2)CC1`, 10%. For `COc1ccc(C#N)c(C(=O)Nc2cccc(Oc3ccc4c(/C=C/c5ccccc5)n[nH]c4c3)c2)c1` the value was 18%; for `O=C(Cn1ccc2ccccc21)Nc1cccc(Nc2ccc3c(/C=C/c4ccccc4)n[nH]c3c2)c1`, -7%; for `CC(C)=CC1C(C(=O)Nc2cccc(Nc3ccc4c(/C=C/c5ccccc5)n[nH]c4c3)c2)C1(C)C` (configuration not stated), 16%. In the case of `O=C(Nc1cccc(Oc2ccc3c(/C=C/c4ccccc4)n[nH]c3c2)c1)c1ccc(=O)oc1`, the inhibition at 0.01 µM came out at 5%. For `CCCN(CCC)CC(=O)Nc1cccc(Nc2ccc3c(/C=C/c4ccccc4)n[nH]c3c2)c1` the value was 17%.

Consider `CC(C)=NOC(C)C(=O)Nc1cccc(Nc2ccc3c(/C=C/c4ccccc4)n[nH]c3c2)c1` (configuration not stated), for which the inhibition at 0.01 µM was -1%.

With `CN1CCC=C(C(=O)Nc2cccc(Nc3ccc4c(/C=C/c5ccccc5)n[nH]c4c3)c2)C1`, the inhibition at 0.01 µM amounted to 0%.

Turning to `O=C(Nc1cccc(Nc2ccc3c(/C=C/c4ccccc4)n[nH]c3c2)c1)C1=C[C@@H](O)[C@@H](O)[C@H](O)C1`, the inhibition at 0.01 µM was determined as 6%. For `Cn1cnc(CC(=O)Nc2cccc(Oc3ccc4c(/C=C/c5ccccc5)n[nH]c4c3)c2)c1` the value was 20%; for `O=C(Cc1ccccc1)C(=O)Nc1cccc(C(=O)c2ccc3c(/C=C/c4ccccc4)n[nH]c3c2)c1`, -37%. For `O=C(Nc1cccc(Nc2ccc3c(/C=C/c4ccccc4)n[nH]c3c2)c1)C1C[C@H]2C=C[C@H]1C2` (some centres not stated) the value was 5%; for `O=C(Nc1cccc(Oc2ccc3c(/C=C/c4ccccc4)n[nH]c3c2)c1)C(=O)C1=CCCCC1`, 57%; for `O=C(Nc1cccc(Oc2ccc3c(/C=C/c4ccccc4)n[nH]c3c2)c1)C1CC2CC(O)C1C2` (configuration not stated), 38%.

Consider `Cc1cc(C(=O)Nc2cccc(C(=O)c3ccc4c(/C=C/c5ccccc5)n[nH]c4c3)c2)c(C)[nH]1`, for which the inhibition at 0.01 µM was determined as 26%. The same measure for `Cc1ccc(C2(C(=O)Nc3cccc(C(=O)c4ccc5c(/C=C/c6ccccc6)n[nH]c5c4)c3)CC2)cc1`: 0%; for `CC(C)c1ccccc1C(=O)Nc1cccc(C(=O)c2ccc3c(/C=C/c4ccccc4)n[nH]c3c2)c1`: 51%; for `O=C(Nc1cccc(Nc2ccc3c(/C=C/c4ccccc4)n[nH]c3c2)c1)C1CC2C=CCC(C2)C1` (configuration not stated): -17%. The same measure for `CCNc1ccccc1C(=O)Nc1cccc(Oc2ccc3c(/C=C/c4ccccc4)n[nH]c3c2)c1`: 85%; for `CC(=O)N1CCC[C@@H]1C(=O)Nc1cccc(Nc2ccc3c(/C=C/c4ccccc4)n[nH]c3c2)c1`: -5%; for `CCCN(CCC)CC(=O)Nc1cccc(Oc2ccc3c(/C=C/c4ccccc4)n[nH]c3c2)c1`: 25%. The same measure for `CC(C)(C)[C@@H](O)C(=O)Nc1cccc(Oc2ccc3c(/C=C/c4ccccc4)n[nH]c3c2)c1`: 30%; for `O=C(Cc1cccnc1)Nc1cccc(Oc2ccc3c(/C=C/c4ccccc4)n[nH]c3c2)c1`: 76%.
